Data: patent US20130040933A1, “AZAINDOLES AS JANUS KINASE INHIBITORS” (priority 2010, published 2013)

These molecules were tested against T1, rhJAK3 (Homo sapiens, UniProt P52333) (assay: JAK Biochemical HTRF Assay (JAK3)). Settings: recombinant purified GST-tagged catalytic domain, HTRF format, [ATP] 1.7 μM; read-out: JAK3 IC50.
T1 construct: recombinant purified GST-tagged catalytic domain for each enzyme; purchased Invitrogen PV3855
T1 sequence (P52333 822-1111 limits assumed): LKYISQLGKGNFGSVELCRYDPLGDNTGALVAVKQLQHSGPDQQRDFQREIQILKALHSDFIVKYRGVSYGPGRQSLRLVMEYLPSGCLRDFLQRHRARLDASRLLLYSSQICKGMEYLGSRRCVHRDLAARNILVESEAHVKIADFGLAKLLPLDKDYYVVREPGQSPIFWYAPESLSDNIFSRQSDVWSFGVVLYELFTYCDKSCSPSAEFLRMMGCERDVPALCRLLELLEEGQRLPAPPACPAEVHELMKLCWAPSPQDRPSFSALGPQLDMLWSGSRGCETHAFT

IC50 [nM] | Structure (SMILES)
≤ 1 | C[C@@H](Nc1cncc(-c2c[nH]c3ncc(-c4cccc(N5CCOCC5)c4)cc23)n1)C(=O)NCC(F)(F)F [Example 15-10, N^2-{6-[5-(3-morpholin-4-ylphenyl)-1H-pyrrolo[2,3-b]pyridin-3-yl]pyrazin-2-yl}-N-(2,2,2-trifluoroethyl)-D-alaninamide]
1 to 10 | C[C@@H](Nc1cncc(-c2c[nH]c3ncc(/C=C/CN(C)C)cc23)n1)C(=O)NCC(F)(F)F [Example 15-4, N^2-(6-{5-[(1E)-3-(dimethylamino)prop-1-en-1-yl]-1H-pyrrolo[2,3-b]pyridin-3-yl}pyrazin-2-yl)-N-(2,2,2-trifluoro-ethyl)-D-alaninamide]
≤ 1 | CC(c1cccc(-c2cnc3[nH]cc(-c4cncc(N[C@H](C)C(=O)NCC(F)(F)F)n4)c3c2)c1)N1CCCC1 (stereo partly drawn) [Example 15-11, N^2-(6-{5-[3-(1-pyrrolidin-1-ylethyl)-phenyl]-1H-pyrrolo[2,3-b]pyridin-3-yl}pyrazin-2-yl)-N-(2,2,2-trifluoroethyl)-D-alaninamide]
10 to 100 | C[C@@H](Nc1cncc(-c2c[nH]c3ncc(-c4ccccc4OC(F)(F)F)cc23)n1)C(=O)NCC(F)(F)F [Example 15-14, N-(2,2,2-trifluoroethyl)-N^2-(6-{5-[2-(trifluoromethoxy)phenyl]-1H-pyrrolo[2,3-b]pyridin-3-yl}pyrazin-2-yl)-D-alaninamide]

Same assay, conditions: recombinant purified GST-tagged catalytic domain, HTRF format, [ATP] 1.7 μM; read-out: rhJAK3 IC50

IC50 [nM] | Structure (SMILES)
100 to 1000 | C[C@@H](Nc1cncc(-c2c[nH]c3ncc(Cl)cc23)n1)C(=O)NCc1cccnc1Cl [Example 2-5, N-[(2-chloropyridin-3-yl)methyl]-N^2-[6-(5-chloro-1H-pyrrolo[2,3-b]-pyridin-3-yl)pyrazin-2-yl]-D-alaninamide]
10 to 100 | O=C(Cc1cncc(-c2c[nH]c3ncc(Cl)cc23)n1)NCC(F)(F)F [Example 8, 2-[6-(5-chloro-1H-pyrrolo[2,3-b]pyridin-3-yl)pyrazin-2-yl]-N-(2,2,2-trifluoroethyl)acetamide]
